Assay results reported in publication PMC2759397 (Bioorganic & medicinal chemistry, 2009).

How the values were obtained:
δ opioid receptors = δ opioid receptors (Mus musculus, UniProt P32300); conditions: read-out: Agonist activity (% inhibition of contraction at 1 µM), MVD
μ opioid receptors [1] = molecular target: T1, μ opioid receptors (Cavia porcellus, UniProt A0ACM8Q262); design: species or system guinea pig; conditions: read-out: Agonist activity (% inhibition of contraction at 1 µM), GPI/LMMP
T1 sequence (A0ACM8Q262 1-400): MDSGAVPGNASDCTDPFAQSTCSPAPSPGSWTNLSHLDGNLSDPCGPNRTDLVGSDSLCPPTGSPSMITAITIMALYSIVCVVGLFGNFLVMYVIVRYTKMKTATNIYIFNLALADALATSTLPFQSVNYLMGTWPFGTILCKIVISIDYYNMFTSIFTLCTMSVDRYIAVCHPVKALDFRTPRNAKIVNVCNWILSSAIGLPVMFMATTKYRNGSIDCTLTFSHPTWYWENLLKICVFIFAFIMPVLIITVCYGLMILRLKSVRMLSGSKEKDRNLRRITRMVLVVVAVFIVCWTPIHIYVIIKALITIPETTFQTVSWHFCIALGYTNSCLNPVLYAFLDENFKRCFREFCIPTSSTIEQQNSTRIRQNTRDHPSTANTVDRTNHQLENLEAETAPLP

delta opioid receptors = delta opioid receptors (Mus musculus, UniProt P32300)
delta opioid receptors, sequence (P32300 whole entry): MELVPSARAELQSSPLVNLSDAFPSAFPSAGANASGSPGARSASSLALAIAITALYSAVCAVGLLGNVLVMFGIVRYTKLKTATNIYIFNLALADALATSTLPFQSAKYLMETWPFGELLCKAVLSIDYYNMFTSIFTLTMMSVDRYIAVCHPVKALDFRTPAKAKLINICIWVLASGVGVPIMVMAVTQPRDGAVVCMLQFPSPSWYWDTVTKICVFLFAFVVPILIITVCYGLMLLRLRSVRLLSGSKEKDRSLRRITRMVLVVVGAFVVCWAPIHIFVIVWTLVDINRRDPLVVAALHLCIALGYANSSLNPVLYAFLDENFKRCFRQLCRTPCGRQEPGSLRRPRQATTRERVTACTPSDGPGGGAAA

μ opioid receptors [2] = molecular target: T1, μ opioid receptors; design: species or system guinea pig
opioid receptors = test: Radioligand competition assay, [3H]diprenorphine, rat brain membranes; assay type: binding; conditions: data not shown

δ opioid receptors, sequence (P32300 whole entry): as above

Structure (SMILES) | inhibition at 1 µM (δ opioid receptors) | inhibition at 1 µM (μ opioid receptors [1]) | DPDPE Antagonism at 1 µM in the MVD (delta opioid receptors) | PL-017 Antagonism at 1 µM in the GPI/LMMP (μ opioid receptors [2]) | inhibition constants against binding of [3H]diprenorphine (opioid receptors)
Cc1c(CC(=O)O)c2ccccc2n1C1CCN(CCc2ccccc2)CC1 [Compound 9c, [2-methyl-1-(1-phenethyl-piperidin-4-yl)-1H-indol-3-yl]-acetic acid] | 19.5% | 3.1% | none at 1 µM | none at 1 µM | micromolar range
COc1ccc2c(c1)c(CC(=O)O)c(C)n2C1CCN(C)CC1 [Compound 9d, [5-methoxy-2-methyl-1-(1-methyl-piperidin-4-yl)-1H-indol-3-yl]-acetic acid] | 2.8% | 0% | none at 1 µM | none at 1 µM | 
Cc1c(CC(=O)O)c2ccccc2n1C1CCN(C)CC1 [Compound 9a, [2-methyl-1-(1-methyl-piperidin-4-yl)-1H-indol-3-yl]-acetic acid] | 17.9% | 0.7% | none at 1 µM | none at 1 µM | 
COc1ccc2c(c1)c(CC(=O)O)c(C)n2C1CCN(CCc2ccccc2)CC1 [Compound 9f, [5-methoxy-2-methyl-1-(1-phenethyl-piperidin-4-yl)-1H-indol-3-yl]-acetic acid] | 0% | 6% | none at 1 µM | none at 1 µM | micromolar range
